# The supplement of paper PMC10307832
# Assays:
# Assay in all cases: relative viability (nuclei count vs DMSO), 5 days (fraction); higher = more cells survive
# [1] = compound: COc1ccc(-c2ccc3c(N4CCOC[C@@H]4C)nc(N4CCOC[C@@H]4C)nc3n2)cc1CO [AZD8055] + COc1cccc2cc(-c3nc([C@H]4CC[C@H](C(=O)O)CC4)n4ncnc(N)c34)[nH]c12 [OSI-027] (partner 0.5 µM)
# Procedure, shortened: (§1)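 Relative viability is defined as nuclei in treated wells over nuclei in vehicle wells. Duplicate plates were run and medians reported. Lung cancer cell lines in 1536-well plates were dosed by pin tool one day after seeding, with one drug or with a fixed anchor-drug dose plus five library-drug doses (not always all listed) in √10 steps, and nuclei were counted after 5 days.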
# [2] = compound: COc1ccc(-c2ccc3c(N4CCOC[C@@H]4C)nc(N4CCOC[C@@H]4C)nc3n2)cc1CO [AZD8055] + C[C@]1(O)C[C@@H](c2nc(-c3ccc4ccc(-c5ccccc5)nc4c3)c3c(N)nccn32)C1 [Linsitinib] (partner 1 µM)
# Procedure, shortened: as §1
# [3] = compound: COc1ccc(-c2ccc3c(N4CCOC[C@@H]4C)nc(N4CCOC[C@@H]4C)nc3n2)cc1CO [AZD8055] + CS(=O)(=O)CCNCc1ccc(-c2ccc3ncnc(Nc4ccc(OCc5cccc(F)c5)c(Cl)c4)c3c2)o1 [Lapatinib] (partner 2 µM)
# Procedure, shortened: as §1
# [4] = compound: COc1ccc(-c2ccc3c(N4CCOC[C@@H]4C)nc(N4CCOC[C@@H]4C)nc3n2)cc1CO [AZD8055] + CC(=O)Nc1cccc(-n2c(=O)n(C3CC3)c(=O)c3c(Nc4ccc(I)cc4F)n(C)c(=O)c(C)c32)c1 [Trametinib] (partner 0.02 µM)
# Procedure, shortened: as §1
Cell Line,relative viability ([1]; first compound 0.01 µM),relative viability ([1]; first compound 0.03162 µM),relative viability ([1]; first compound 0.1 µM),relative viability ([1]; first compound 0.3162 µM),relative viability ([1]; first compound 1 µM),relative viability ([2]; first compound 0.01 µM),relative viability ([2]; first compound 0.03162 µM),relative viability ([2]; first compound 0.1 µM),relative viability ([2]; first compound 0.3162 µM),relative viability ([2]; first compound 1 µM),relative viability ([3]; first compound 0.01 µM),relative viability ([3]; first compound 0.03162 µM),relative viability ([3]; first compound 0.1 µM),relative viability ([3]; first compound 0.3162 µM),relative viability ([3]; first compound 1 µM),relative viability ([4]; first compound 0.01 µM),relative viability ([4]; first compound 0.03162 µM),relative viability ([4]; first compound 0.1 µM),relative viability ([4]; first compound 0.3162 µM),relative viability ([4]; first compound 1 µM)
NCI-H1666,0.894,0.905,0.887,0.747,0.717,0.802,0.666,0.417,0.552,0.375,0.587,0.488,0.488,0.355,0.362,0.887,0.877,0.877,0.797,0.793
NCI-H1734,0.665,0.553,0.493,0.319,0.225,0.857,0.638,0.457,0.289,0.262,1.17,0.789,0.57,0.308,0.242,0.747,0.559,0.531,0.312,0.242
NCI-H1755,0.752,0.698,0.649,0.544,0.537,0.95,0.867,0.764,0.474,0.403,1.07,0.815,0.935,0.565,0.457,0.729,0.673,0.615,0.404,0.385
NCI-H1792,0.799,0.674,0.574,0.431,0.26,0.292,0.233,0.223,0.128,0.101,1.02,0.838,0.808,0.15,0.131,0.511,0.273,0.227,0.0933,0.0673
NCI-H1793,0.291,0.215,0.196,0.18,0.202,0.539,0.315,0.224,0.197,0.18,0.422,0.346,0.305,0.308,0.276,0.449,0.274,0.279,0.183,0.22
NCI-H1915,0.664,0.551,0.656,0.547,0.459,1.19,0.977,1.08,0.837,0.558,1.1,0.876,1.01,0.655,0.522,0.286,0.254,0.259,0.174,0.146
NCI-H1944,0.418,0.454,0.378,0.297,0.24,1.13,0.843,0.693,0.477,0.335,0.766,0.655,0.615,0.367,0.336,0.411,0.378,0.292,0.228,0.191
NCI-H1975,0.677,0.56,0.375,0.237,0.235,0.897,0.581,0.469,0.265,0.219,1.04,0.601,0.468,0.273,0.251,0.417,0.313,0.193,0.192,0.18
NCI-H1993,0.545,0.502,0.625,0.353,0.568,0.721,0.593,0.688,0.702,0.695,0.685,0.766,0.75,0.668,0.672,0.493,0.443,0.517,0.449,0.413
NCI-H2009,0.72,0.562,0.641,0.338,0.292,1.17,1.1,0.891,0.692,0.374,1.15,0.74,0.919,0.396,0.316,0.249,0.248,0.205,0.14,0.141
NCI-H2023,0.445,0.347,0.266,0.13,0.116,0.45,0.343,0.28,0.17,0.12,0.971,0.611,0.361,0.148,0.132,0.454,0.43,0.187,0.152,0.122
NCI-H2085,0.744,0.852,0.551,0.34,0.355,0.956,0.744,0.566,0.289,0.274,0.899,0.514,0.384,0.334,0.341,0.535,0.326,0.282,0.246,0.295
NCI-H2087,0.77,0.606,0.577,0.412,0.311,0.907,0.905,0.679,0.411,0.367,1.01,0.932,0.826,0.581,0.435,0.248,0.166,0.169,0.153,0.116
NCI-H2126,0.762,0.743,0.717,0.528,0.449,0.655,0.572,0.504,0.375,0.385,0.653,0.679,0.615,0.453,0.425,0.544,0.469,0.424,0.294,0.359
NCI-H2228,0.548,0.446,0.281,0.176,0.234,0.528,0.284,0.304,0.175,0.257,1.01,0.709,0.338,0.219,0.261,0.507,0.314,0.211,0.159,0.199
NCI-H2347,0.408,0.387,0.356,0.346,0.248,0.875,0.805,0.746,0.51,0.436,0.89,0.825,0.823,0.498,0.408,0.282,0.299,0.277,0.233,0.233
